Measured values: US20240261418A1, “SOS1 DEGRADING AGENT AND PREPARATION METHOD THEREFOR AND APPLICATION THEREOF” (SHANGHAI LEADINGTAC PHARMACEUTICAL CO. LTD., priority 2021, published 2024)

Key:
SOS1 protein = molecular target: T1, SOS1 protein (Homo sapiens, UniProt Q07889); test: SOS1 degradation assay (Western blot) in NCI-H358 cells; format: cell-based; conditions: NCI-H358 (KRAS G12C), 24 h
T1 sequence (Q07889 1-1333): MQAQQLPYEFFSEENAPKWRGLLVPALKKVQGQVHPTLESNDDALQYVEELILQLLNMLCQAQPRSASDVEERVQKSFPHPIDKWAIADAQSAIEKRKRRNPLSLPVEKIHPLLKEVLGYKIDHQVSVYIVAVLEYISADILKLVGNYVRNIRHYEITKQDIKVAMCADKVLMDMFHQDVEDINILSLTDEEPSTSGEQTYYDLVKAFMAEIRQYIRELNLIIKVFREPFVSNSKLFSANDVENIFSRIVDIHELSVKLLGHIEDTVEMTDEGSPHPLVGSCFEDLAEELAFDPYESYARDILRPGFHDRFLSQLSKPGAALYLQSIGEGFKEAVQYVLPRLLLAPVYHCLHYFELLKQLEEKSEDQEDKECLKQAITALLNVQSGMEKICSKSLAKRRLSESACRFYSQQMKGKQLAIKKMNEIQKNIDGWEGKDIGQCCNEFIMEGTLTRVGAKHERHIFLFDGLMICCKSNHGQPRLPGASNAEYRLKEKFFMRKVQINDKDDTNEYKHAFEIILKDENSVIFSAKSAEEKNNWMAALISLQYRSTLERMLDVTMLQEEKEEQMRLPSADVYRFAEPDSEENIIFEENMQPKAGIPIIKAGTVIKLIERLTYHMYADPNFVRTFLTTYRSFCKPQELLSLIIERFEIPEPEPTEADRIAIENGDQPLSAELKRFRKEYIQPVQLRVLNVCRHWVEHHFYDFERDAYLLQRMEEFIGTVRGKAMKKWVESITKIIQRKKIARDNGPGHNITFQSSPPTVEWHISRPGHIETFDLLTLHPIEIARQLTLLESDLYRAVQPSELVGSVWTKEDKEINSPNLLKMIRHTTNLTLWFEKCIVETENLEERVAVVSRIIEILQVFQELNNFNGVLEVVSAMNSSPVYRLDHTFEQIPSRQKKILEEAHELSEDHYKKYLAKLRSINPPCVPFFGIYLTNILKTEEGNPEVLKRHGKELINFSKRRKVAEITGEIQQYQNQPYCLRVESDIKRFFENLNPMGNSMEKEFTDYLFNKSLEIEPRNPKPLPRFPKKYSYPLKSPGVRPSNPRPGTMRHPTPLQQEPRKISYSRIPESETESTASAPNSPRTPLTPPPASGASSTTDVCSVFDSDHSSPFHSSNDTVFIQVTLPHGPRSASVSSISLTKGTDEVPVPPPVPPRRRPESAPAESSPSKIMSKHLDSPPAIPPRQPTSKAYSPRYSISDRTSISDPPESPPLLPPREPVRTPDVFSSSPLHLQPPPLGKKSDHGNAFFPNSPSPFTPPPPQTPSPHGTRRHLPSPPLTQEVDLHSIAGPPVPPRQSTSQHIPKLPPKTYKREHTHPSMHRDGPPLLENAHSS
Description: The specific procedures were as follows:
0.95 mL of cells were seeded into each well of a 24-well cell culture plate to achieve a cell density of 5×10^5 cells/well; the cell plate was incubated in an incubator at 37° C. with 5% CO2 overnight. Then 50 μL of the compound solution after dilution was added to each of the wells with the corresponding cells, so that the final concentration of the compound was in a range of 0.03-3000 nM.
After dosing, the cell plate was incubated in an incubator at 37° C. with 5% CO2 for 24 h. […] After the plate was left to stand on ice for 30 min, the protein lysate in each well was transferred to a 1.5 mL centrifuge tube and centrifuged at 15000 g for 20 min at 4° C. The cell lysate supernatant after centrifugation was cryopreserved at −80° C. for testing and was used for determining the degradation level of the SOS1 protein by a WB method. The concentration of total protein in the cell lysate supernatant was determined using the BCA Protein Quantification Kit (Tiangen, PA115-02).
The concentration of total protein in the cell lysate was determined by BCA. The total protein was adjusted to 0.5 μg/μL with PBS and 5×SDS- PAGE protein loading buffer (Beyotime, P001L), incubated in a water bath at 100° C. for 15 min, incubated in an ice bath on ice for 5 min, centrifuged at 14000 g for 1 min at 4° C., and mixed well as a loading sample for WB. Protein electrophoresis was performed on a precast gel (KeyGEN, KGMG010W15) with a loading volume of 10 μL (total protein: 5 μg) using a Tris-MOPS-SDS running solution (Adamas, P1598253) at a constant voltage of 120 V for 55 min. After the electrophoresis, the protein on the gel strip was transferred to a PVDF membrane at a constant current of 250 mA for 65 min. After the membrane transfer, the membrane was incubated in 1× QuickBlock blocking buffer (Beyotime, P0235) for 30 min at room temperature. […] The protein map was subjected to gray value analysis by the chemiluminescence imaging system from Clinx. […] Then the degradation rate was calculated by comparing the gray correction value with the gray correction value of the control group. Then nonlinear curve fitting was performed by GraphPad Prism 8 in the logarithmic concentration-inhibition rate to obtain the DC50 and Dmax values of the compounds.

KRAS-G12C/SOS1 = molecular target: T2, KRAS-G12C/SOS1 (Homo sapiens, UniProt Q07889); test: KRAS-G12C/SOS1 binding assay (HTRF); conditions: inhibition of KRAS-G12C/SOS1 binding
T2 construct: purchased Cisbio 63ADK000CB16PEG
T2 sequence (Q07889 1-1333): T1 sequence (Q07889 1-1333)
Description: Test Example 1: KRAS-G12C/SOS1 Binding Assay
The following method was used to determine the extent of inhibition of KRAS-G12C/SOS1 binding by the preferred compounds of the present invention under in vitro conditions. In this method, the competitive inhibition of KRAS-G12C/SOS1 binding by the preferred compounds was assayed by the homogeneous time-resolved fluorescence (HTRF) technology using the KRAS-G12C/SOS1 binding assay kit (Cisbio, 63ADK000CB16PEG).
The experimental procedures were as follows (refer to the kit instructions for details): the compounds of the present invention were each firstly dissolved in DMSO at a concentration of 20 mM, and then diluted in an equal gradient with a buffer in the kit, so that the final concentrations of the test compounds in the reaction system were in a range of 10000 nM-0.04 nM, and the final concentration of DMSO was 0.5%. 2 μL of the compounds were each incubated with 4 μL of 1×Tag1-SOS1, 4 μL of 1×Tag2-KRAS-G12C (containing 10 μM guanosine triphosphate, GTP) at 25° C. for 15 min. Then 5 μL of 1×Anti-Tag1-Tb3+ and 5 μL of 1×Anti-Tag2-XL665 were added to the reaction system, and the mixture was incubated on ice for 3 h. After the incubation, the fluorescence intensity of each well was measured at the excitation wavelength of 337 nm, the fluorescence intensity of each well was read at the emission wavelengths of 620 nm and 665 nm on a microplate reader EnVision (PerkinElmer, 2105) in an HTRF mode, and the Ratio value was calculated by the formula Ratio=(665 nm/620 nm)×[…]. The inhibition rates of the compounds at each concentration were calculated by comparing the fluorescence intensity ratio with that of the control group, and then nonlinear curve fitting was performed by GraphPad Prism 8 in the logarithmic concentration-inhibition rate to obtain the IC50 values of the compounds, as shown in Table 1.

| SMILES | DC50 (SOS1 protein) | Dmax (SOS1 protein) | IC50 (KRAS-G12C/SOS1) | NCI-H358 (G12C) Dmax (SOS1 protein) |
| --- | --- | --- | --- | --- |
| COc1cc2nc(C)nc(N[C@@H](C)c3cc(N)cc(C(F)(F)F)c3)c2cc1[C@H]1CC[C@@H](C(=O)N2CCN(CCC3CCC4(CC3)CCN(C(=O)c3ccc(Cl)c(N5CCC(=O)NC5=O)c3)CC4)CC2)CC1 [Example 6, 1-(5-(9-(2-(4-((1S,4S)-4-(4-(((R)-1-(3-amino-5-(trifluoromethyl)phenyl)ethyl)amino)-7-methoxy-2-methylquinazolin-6-yl)cyclohexane-1-carbonyl)piperazin-1-yl)ethyl)-3-azaspiro[5.5]undecane-3-carbonyl)-2-chlorophenyl)dihydropyrimidine-2,4(1H,3H)-dione] | 1000 to 10000 nM |  |  | C (30≤Dmax (%)<50) |
| COc1cc2nc(C)nc(N[C@H](C)c3cc(N)cc(C(F)(F)F)c3)c2cc1[C@H]1CC[C@H](C(=O)N2CCC(CCCN(C)C3CCN(Cc4ccc(Cl)c(N5CCC(=O)NC5=O)c4)CC3)CC2)CC1 [Example 10, 1-(5-((4-((3-(1-((1R,4R)-4-(4-(((R)-1-(3-amino-5-(trifluoromethyl)phenyl)ethyl)amino)-7-methoxy-2-methylquinazolin-6-yl)cyclohexane-1-carbonyl)piperidin-4-yl)propyl)(methyl)amino)piperidin-1-yl)methyl)-2-chlorophenyl)dihydropyrimidine-2,4(1H,3H)-dione] |  |  |  | D (Dma (%)<30) |
| COc1cc2nc(C)nc(N[C@H](C)c3cc(N)cc(C(F)(F)F)c3)c2cc1C1CCC(C(=O)N2CCC(CCOCC3CCN(C(=O)c4ccc5c(c4)C(=O)N(C4CCC(=O)NC4=O)C5=O)CC3)CC2)CC1 (stereo partly drawn) [Example 11, 5-(4-((2-(1-((1S,4S)-4-(4-(((R)-1-(3-amino-5-(trifluoromethyl)phenyl)ethyl)amino)-7-methoxy-2-methylquinazolin-6-yl)cyclohexane-1-carbonyl)piperidin-4-yl)ethoxy)methyl)piperidine-1-carbonyl)-2-(2,6-dioxopiperidin-3-yl)isoindoline-1,3-dione] |  |  |  | A (80≤Dmax (%)≤100) |
| Cc1nc(N[C@H](C)c2cc(N)cc(C(F)(F)F)c2)c2cc([C@H]3CC[C@H](C(=O)N4CCN(CC5CCC6(CC5)CCN(C(=O)c5ccc(Cl)c(N7CCC(=O)NC7=O)c5)CC6)CC4)CC3)ncc2n1 [Example 50, 1-(5-(9-((4-((1R,4R)-4-(4-(((R)-1-(3-amino-5-(trifluoromethyl)phenyl)ethyl)amino)-2-methylpyrido[3,4-d]pyrimidin-6-yl)cyclohexane-1-carbonyl)piperazin-1-yl)methyl)-3-azaspiro[5.5]undecane-3-carbonyl)-2-chlorophenyl)dihydropyrimidine-2,4(1H,3H)-dione] |  |  |  | B (50≤Dmax (%)<80) |

Second part, led by results:

| DC50 (SOS1 protein) | Dmax (SOS1 protein) | IC50 (KRAS-G12C/SOS1) | SMILES | NCI-H358 (G12C) Dmax (SOS1 protein) |
| --- | --- | --- | --- | --- |
| < 50 nM | 80 to 100% | ≤ 15 nM | CNCc1ccccc1-c1csc([C@@H](C)Nc2nc(C)nc3cc(OC)c([C@H]4CC[C@H](C(=O)N5CCN(CC6CCC7(CC6)CCN(C(=O)c6ccc(Cl)c(N8CCC(=O)NC8=O)c6)CC7)CC5)CC4)cc23)c1 [Example 2, 1-(2-chloro-5-(9-((4-((1R,4R)-4-(7-methoxy-2-methyl-4-(((R)-1-(4-(2-((methylamino)methyl)phenyl)thien-2-yl)ethyl)amino)quinazolin-6-yl)cyclohexane-1-carbonyl)piperazin-1-yl)methyl)-3-azaspiro[5.5]undecane-3-carbonyl)phenyl)dihydropyrimidine-2,4(1H,3H)-dione] |  |
| 100 to 500 nM | 50 to 80% | 15 to 30 nM | CNCc1ccccc1-c1csc([C@@H](C)Nc2nc(C)nc3cc(OC)c([C@H]4CC[C@H](C(=O)N5CCC(CCCC6CCN(C(=O)c7ccc(Cl)c(N8CCC(=O)NC8=O)c7)CC6)CC5)CC4)cc23)c1 [Example 3, 1-(2-chloro-5-(4-(3-(1-((1R,4R)-4-(7-methoxy-2-methyl-4-(((R)-1-(4-(2-((methylamino)methyl)phenyl)thien-2-yl)ethyl)amino)quinazolin-6-yl)cyclohexane-1-carbonyl)piperidin-4-yl)propyl)piperidine-1-carbonyl)phenyl)dihydropyrimidine-2,4(1H,3H)-dione] |  |
| 50 to 100 nM | 80 to 100% | ≤ 15 nM | COc1cc2nc(C)nc(N[C@H](C)c3cc(-c4ccccc4CN(C)C)cs3)c2cc1[C@H]1CC[C@H](C(=O)N2CCN(CC3CCC4(CC3)CCN(C(=O)c3ccc(Cl)c(N5CCC(=O)NC5=O)c3)CC4)CC2)CC1 [Example 4, 1-(2-chloro-5-(9-((4-((1R,4R)-4-(4-(((R)-1-(4-(2-((dimethylamino)methyl)phenyl)thien-2-yl)ethyl)amino)-7-methoxy-2-methylquinazolin-6-yl)cyclohexane-1-carbonyl)piperazin-1-yl)methyl)-3-azaspiro[5.5]undecane-3-carbonyl)phenyl)dihydropyrimidine-2,4(1H,3H)-dione] |  |
|  | 30 to 50% |  | CCNc1cc([C@@H](C)Nc2nc(C)nc3cc(OC)c([C@H]4CC[C@H](C(=O)N5CCN(CC6CCC7(CC6)CCN(C(=O)c6ccc(Cl)c(N8CCC(=O)NC8=O)c6)CC7)CC5)CC4)cc23)cc(C(F)(F)F)c1 [Example 7, 1-(2-chloro-5-(9-((4-((1R,4R)-4-(4-(((R)-1-(3-(ethylamino)-5-(trifluoromethyl)phenyl)ethyl)amino)-7-methoxy-2-methylquinazolin-6-yl)cyclohexane-1-carbonyl)piperazin-1-yl)methyl)-3-azaspiro[5.5]undecane-3-carbonyl)phenyl)dihydropyrimidine-2,4(1H,3H)-dione] |  |
